Source: US20250108088A1, “REGENERATIVE PEPTIDES AND METHODS FOR USE THEREOF” (priority 2023, published 2025)

Legend:
HNDF fibroblasts = test: Fibroblast cell proliferation (EDU); type: cell-based, human; details: N = 3; for Fibroblast proliferation, Representative value from experiments (% change relative to control): most effective significant concentration
Protocol: Fibroblast proliferation is an important component of tissue regeneration. To determine if the peptides of the disclosure affect fibroblast proliferation, HNDFs were grown as described above, and split from 1-10 cm plates to 4-24 well plates. After allowing the cells to grow overnight, normal media was replaced with starvation media (1% FBS in DMEM). 10 ng/ml of fibroblast growth factor (FGF) served as a positive control, untreated cells (starvation media only) served as a negative control, and different concentrations of the peptides as test articles. The cells were then exposed to the peptides for a day before adding 5-Ethynyl-2′-deoxyuridine (EDU) EDU signal marker for 2-4 hours to assess DNA synthesis and cell proliferation.
The fibroblasts were fixed in PFA for 10-15 minutes, then washed 2× in 4% BSA. 0.1% Triton X-100 in PBS was added for 20 min at 23° C. to permeabilize the cells. The cells were washed 2× in 4% BSA and the following reaction mixture was added: 0.25% of 488 iFlour azide, 4% CuSO, 10% Sodium Ascorbate in PBS. The cells were incubated at 23° C. for 30 minutes. The cells were washed in BSA 1× and in PBS 1×. The cells were also stained for DAPI for 30 minutes at 23° C. The cells were washed 2× in PBS and maintained in PBS.
Plates were imaged using the Celigo Imaging Cytometer by Nexcelcom. The amount of fluorescent expression of EDU and DAPI were quantified to determine the amount of EDU/field (and thus the percentage of fibroblast cells dividing).
Because the concentration required to induce an effect with each peptide was not known, each peptide was tested in 3 concentrations: 10 ng/ml, 100 ng/ml, and 1000 ng/ml as shown in Table 4A and Table 4B.

[1] = tested on: Acinetobacter baumannii ATCC 196062; test: Diffusion agar plate method, zone of inhibition; type: cell-based; details: 62.5 μg/ml to 1000 μg/ml; FIG. 5, FIG. 10
Protocol: (§1) Cell culture: Cultures of each bacterial strain were prepared by inoculating on Muller Hinton Agar (MHA) medium. After overnight incubation at 37° C., the density of the bacterial cells was compared to the McFarland turbidity standard (0.5).
(§2) Plates were swabbed with McFarland 0.5 inoculum of each test bacteria. […] serial dilutions of the peptides were prepared and 20 μl of compound were dropped onto the MHA. Antibiotic disc served as a positive control and vehicle alone served as the negative control. Plates were incubated for 16-18 hours and assessed for antibacterial activity. Zones of inhibition were measured for each TA dilution and compared with the controls.

[2] = tested on: Streptococcus pneumoniae DCC1335; test: Diffusion agar plate method, zone of inhibition; type: cell-based; details: 62.5 μg/ml to 1000 μg/ml; FIG. 10
Protocol: as §1, §2

[3] = tested on: Normal human dermal fibroblasts (HNDF); test: Myofibroblast transition assay (MFT), aSMA immunofluorescence; type: cell-based; details: N = 3; for Myofibroblast transition (MFT), aSMA/cell, % change relative to control: TGF-Beta induced HNDF, control of no peptide; for MFT, Representative value from experiments (% change relative to control): most effective significant concentration of 10, 100, 1000 ng/ml
Source text: The myofibroblast transition (MFT) assay determines the effect of the peptide on inhibiting the transition of fibroblasts to myofibroblasts. The extracellular matrix produced by myofibroblasts may be produced in excess and may not be remodeled during tissue healing, leaving behind the fibrous connective tissue that forms a scar. Thus, the ability to regulate the degree of MFT may enable control of scarring. To determine if the peptides provided herein affect MFT, the following assay was performed.
Normal human dermal fibroblasts (HNDF) were cultured in high glucose Dulbecco's modified eagle medium (DMEM) supplemented with 10% fetal bovine serum (FBS) and 5 ml of 10,000 units of penicillin/streptomycin. Cells were cultured on 10 cm plates with media changes every 2 days. Cells were passaged in 0.25% Trypsin/EDTA after achieving 80% confluency.
To induce myofibroblast transition (MFT), normal human dermal fibroblasts (HNDFs) were split from 1-10 cm plates to 5-96 well plates. Cells were then allowed to grow the next day. The following day, cells were serum starved (1% FBS in DMEM) for 4 hours prior to adding 20 ng/ml of TGF-Beta to all wells of the plate. 1000 μM of Vactosertib (TEW-7197/EW-7197) was added to serve as a positive control and different concentrations of peptides were added to serve as the test articles. The cells were then exposed to the compounds for 5 more days before fixation.
The cells were fixed in paraformaldehyde (PFA) for 10-15 minutes, then washed 2× in PBS. Cells were blocked in 4% BSA for 30 minutes at 23° C. Cells were stained with the primary alpha-smooth muscle actin (aSMA) antibody (1:100) for 1 hour at 23° C. or left out at 4° C. overnight. Cells were rinsed 2× with BSA and then the secondary antibody mix was added: Alexa 488 (1:500) and DAPI (1:1000) for 30 min at 23° C. or 1 hr at 4° C. The plates were covered during staining, then rinsed 2× in BSA and stored in PBS.
Plates were imaged using the Celigo Imaging Cytometer by Nexcelcom. The ratio of fluorescent expression of alpha-smooth muscle actin (aSMA) and DAPI were quantified to determine the amount of aSMA/cell.
The change (normalized to the control) in MFT for each concentration is shown along with the p value for all experiments relative to the control of no peptide.

[4] = tested on: interleukin-8 (IL-8) production in human fibroblasts; test: Fibroblast inflammation assay (LPS-induced IL-8, ELISA); type: cell-based; details: LPS induction
Protocol: Inflammation in fibroblasts leads to the production of the chemokine interleukin-8 (IL-8), which stimulates fibroblast to myofibroblast transition (MFT) thereby enhancing scar formation. To determine if the peptides of the instant disclosure affect fibroblast response to inflammation and fibroblast IL-8 production, the following assays were performed.
Human fibroblasts were grown as described above. HNDFs were plated in 96 well plates at a concentration of 1×10^4 cells/well and allowed to incubate overnight. The next day cells were dosed with 5 μg/mL of LPS with and without the peptides. The negative control contained only media and vehicle, while the positive control was dosed with lipopolysaccharides (LPS) and dexamethasone (50 μg/ml). After 24 hours, the media was removed to measure IL6 and IL8 cytokine levels using ELISA. A standard curve was plotted in excel. All data were blank subtracted and then fit onto the curve to calculate cytokine concentrations.

Keratinocytes = test: Keratinocyte scratch assay; type: cell-based, human; design: Keratinocyte scratch assay (% change relative to control): unit not given here
Protocol: HNDF fibroblasts were grown as described above. HNDFs were split from 1-10 cm plate to 4-24 well plates. Cells were allowed to grow until 90-100% confluent. Cells were serum starved (in 1% FBS in DMEM) for 4 hours before scratching using the Biotek Autoscratch machine. Cells were washed with PBS and the media was replaced with starvation media as a negative control, normal media (10% FBS) as positive control, and starvation media+compound as the test article. Cells were imaged at T=0 to serve as a baseline and fixed at T=48 hours. The images at 48 hours were imaged using phase contrast microscopy or with wheat germ agglutinin (WGA) stain.
Scratch assays were also performed on keratinocytes. Keratinocytes were grown to confluency and scratch assays were performed and measured as above with fibroblasts.

Substance	Fibroblast proliferation, Representative value from experiments (% change relative to control) (HNDF fibroblasts)	Myofibroblast transition (MFT), aSMA/cell, % change relative to control ([3]; 100 ng/ml peptide)	Myofibroblast transition (MFT), aSMA/cell, % change relative to control ([3]; 1000 ng/ml peptide)	MFT, Representative value from experiments (% change relative to control) [3]	further results
GYRCSKG [MBa7]	0.4644 p = (0.01) %				Fibroblast proliferation (% change relative to control) (HNDF fibroblasts; 10 ng/ml peptide): 0.3483%; Fibroblast proliferation (% change relative to control) (HNDF fibroblasts; 1000 ng/ml peptide): 0.4644%
IDFEDVIAEP [MBa4]	0.8384 p = (0.037) %				Fibroblast proliferation (% change relative to control) (HNDF fibroblasts; 1000 ng/ml peptide): 0.8384%
SSSGLGLRKRLRKFRNK [MBb50]	0.3589 p = (0.025) %				Fibroblast proliferation (% change relative to control) (HNDF fibroblasts; 100 ng/ml peptide): 0.3589%
ERDLK [MBb14]	1.094 p = (0.029) %				Fibroblast proliferation (% change relative to control) (HNDF fibroblasts; 10 ng/ml peptide): 1.094%
AATHEFGHSLGLSH [MBm1]	0.2919 (p = 0.044) %				Fibroblast proliferation (% change relative to control) (HNDF fibroblasts; 100 ng/ml peptide): 0.2919%
GFWDIL WHIPHTIKG (GFWDILWHIPHTIKG) [MBdol15]					agar zone of inhibition, inhibiting bacterial growth [1]: effective; agar zone of inhibition, inhibiting bacterial growth [2]: effective
QFCGPCGLRKRLRKFRNK [MBb11]		−0.3537%	−0.419%	−0.419 p = (0.025) %	effect on IL-8 inhibition in fibroblasts relative to the negative control [4]: low but significant effect; increase of keratinocyte migration (Keratinocytes): at least 39%; rate of keratinocyte migration (Keratinocytes): significantly increased; Keratinocyte scratch assay (% change relative to control) (Keratinocytes; 1000 ng/ml, N = 8): 0.3892
HIWA VVPCIR (HIWAVVPCIR) [MBBey3]		−0.1442%		−0.1442 p = (0.037) %	
GDIR VR (GDIRVR) [MBWhit33]		−0.3175%	−0.3527%	−0.3527 p = (0.032) %	
FEDVIAEP [MBa5]	0.5133 (p = 0.004) %				Fibroblast proliferation (% change relative to control) (HNDF fibroblasts; 10 ng/ml peptide): 0.5133%
TFMSHLFCCVQKRCDCSF [MBdol23]					agar zone of inhibition, inhibiting bacterial growth [1]: effective; agar zone of inhibition, inhibiting bacterial growth [2]: effective
SAYGVSKGLRKRLRKFRNK [MBb51]	0.4175 p = (0.025) %		−0.3773%	−0.5028 p = (0.042) %	Myofibroblast transition (MFT), aSMA/cell, % change relative to control ([3]; 10 ng/ml peptide): −0.5028%; Fibroblast proliferation (% change relative to control) (HNDF fibroblasts; 100 ng/ml peptide): 0.3099%; Fibroblast proliferation (% change relative to control) (HNDF fibroblasts; 1000 ng/ml peptide): 0.4175%
PKPQP [MBb28]		−0.243%	−0.1881%	−0.243 p = (0.006) %	effect on IL-8 inhibition in fibroblasts relative to the negative control [4]: low but significant effect
